Measurements as given in US4476120A, “Thiolic derivatives of erythromycin having therapeutic activity, and pharmaceutical compositions containing them” (Sigma Tau Indistrie Farmaceutiche Riunites, p.A, priority 1982, dated 1984).
Converted amounts (≈) assume the structure as drawn. Where two headings read alike, the source gives them in different places.

Key:
D. pneumoniae SS 23 = assay: Experimental infection induced by D. pneumoniae SS 23; format: in vivo, Swiss white mice; settings: D. pneumoniae SS 23, mg/kg of erythromycin, survival after 7 days; for ED50 (reliability limits): 10080 min
Outline: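 Swiss mice of 20 g infected parenterally with lethal amounts of Staph. aureus SS 07 or D. pneumoniae SS 23. Antibiotics were given at infection and again 6 and 24 h later. ED50 was derived from survival at 7 days.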

S. lutea ATCC 9341 = format: cell-based; settings: Brain Heart Infusion, estolate and RV11-RV15 previously hydrolized, unit assumed
B. cereus ATCC 11778 = format: cell-based; settings: Brain Heart Infusion, estolate and RV11-RV15 previously hydrolized, unit assumed
[1] = Hematic levels in the rat (absorption by oral route); settings: for absorption by oral route (in words): from in vivo antibacterial and pharmacodynamic tests
E. cloacae SS 07 = format: cell-based; settings: Brain Heart Infusion, estolate and RV11-RV15 previously hydrolized, unit assumed
[2] = in vivo; for Hematic levels in the rat: po, 100 mg/kg; for absorption by oral route (in words): rat
[3] = Hematic levels in the healthy volunteer; format: in vivo, healthy volunteers; settings: oral, 500 mg of erythromycin, average
Excerpt: For the dosing, the microbiological method using a B. subtilis strain was adopted.

[4] = 0.30 hours, 100 mg/kg as erythromycin, average, 100 mg/kg, 18 min
[5] = 1 hour, 100 mg/kg as erythromycin, average, 100 mg/kg, 60 min
[6] = 4 hours, 100 mg/kg as erythromycin, average, 100 mg/kg, 240 min
[7] = 5 hours, 100 mg/kg as erythromycin, average, 100 mg/kg, 300 min
[8] = 6 hours, 100 mg/kg as erythromycin, average, 100 mg/kg, 360 min
[9] = 2 hours, 100 mg/kg as erythromycin, average, 100 mg/kg, 120 min
[10] = 3 hours, 100 mg/kg as erythromycin, average, 100 mg/kg, 180 min

SMILES | ED50 (reliability limits) (D. pneumoniae SS 23; os) | MIC (S. lutea ATCC 9341) | MIC (B. cereus ATCC 11778) | Hematic levels in the rat [1, 4] | Hematic levels in the rat [1, 5] | Hematic levels in the rat [1, 6] | Hematic levels in the rat [1, 7] | Hematic levels in the rat [1, 8] | absorption by oral route (in words) [1] | MIC (E. cloacae SS 07) | Hematic levels in the rat ([2]; 0.3 h) | Hematic levels in the rat ([2]; 1 h) | Hematic levels in the rat ([2]; 2 h) | Hematic levels in the rat ([2]; 3 h) | Hematic levels in the rat ([2]; 4 h) | Hematic levels in the rat ([2]; 5 h) | Hematic levels in the rat ([2]; 6 h) | absorption by oral route (in words) [2] | Hematic levels in the healthy volunteer ([3]; 0.30 hours, 18 min) | Hematic levels in the healthy volunteer ([3]; 1 hour, 60 min) | also measured
CC[C@H]1OC(=O)[C@H](C)[C@@H](O[C@H]2C[C@@](C)(OC)[C@@H](O)[C@H](C)O2)[C@H](C)[C@@H](O[C@@H]2O[C@H](C)C[C@H](N(C)C)[C@H]2O)[C@](C)(O)C[C@@H](C)C(=O)[C@H](C)[C@@H](O)[C@]1(C)O [RV01, erythromycin alpha-mercaptosuccinate] | 108.98 (137.60-86.32) mg/kg | 0.01 µg/mL (≈ 0.0136 µM) | 0.4 µg/mL (≈ 0.545 µM) | 0.48 µg/mL | 0.79 µg/mL | 0.44 µg/mL | 0.24 µg/mL | 0.03 µg/mL | poorly absorbed by oral route and in a rate like that of erythromycin base | > 200 µg/mL |  |  |  |  |  |  |  |  |  |  | ED50 (D. pneumoniae SS 23; Streptococcus pneumoniae, SS23, in Mus musculus, sc, 168 h, s.c., read-out: ED50 (reliability limits)): 52.7 mg/kg; concentration at 2 h ([1]; rat, blood, po, 100 mg/kg, Hematic levels in the rat, 2 hours, 100 mg/kg as erythromycin, average): 1180 ng/mL; concentration at 3 h ([1]; rat, blood, po, 100 mg/kg, Hematic levels in the rat, 3 hours, 100 mg/kg as erythromycin, average): 770 ng/mL
CCC(=O)O[C@H]1[C@H](O[C@@H]2[C@@H](C)[C@H](O[C@H]3C[C@@](C)(OC)[C@@H](O)[C@H](C)O3)[C@@H](C)C(=O)O[C@H](CC)[C@@](C)(O)[C@H](O)[C@@H](C)C(=O)[C@H](C)C[C@@]2(C)O)O[C@H](C)C[C@@H]1N(C)C [RV15, erythromycin monopropionate N-acetylcysteinate] | 110.90 (135.28-90.92) mg/kg | 0.01 µg/mL (≈ 0.0127 µM) | 0.4 µg/mL (≈ 0.506 µM) |  |  |  |  |  |  | > 200 µg/mL | 0.85 µg/mL | 1.90 µg/mL | 2.68 µg/mL | 1.19 µg/mL | 0.55 µg/mL | 0.44 µg/mL | 0.03 µg/mL | absorbed by oral route in a rate practically analogous to that of erythromycin estolate | 1.10 µg/mL | 1.58 µg/mL | Hematic levels in the healthy volunteer ([3]; 2 hours, 120 min): 2.17 µg/mL; Hematic levels in the healthy volunteer ([3]; 3 hours, 180 min): 1.72 µg/mL; Hematic levels in the healthy volunteer ([3]; 4 hours, 240 min): 1.38 µg/mL
CCC(=O)O[C@H]1[C@H](O[C@@H]2[C@@H](C)[C@H](O[C@H]3C[C@@](C)(OC)[C@@H](O)[C@H](C)O3)[C@@H](C)C(=O)O[C@H](CC)[C@@](C)(O)[C@H](O)[C@@H](C)C(=O)[C@H](C)C[C@@]2(C)O)O[C@H](C)C[C@@H]1N(C)C [RV11, erythromycin-monopropionate-alpha-mercaptosuccinate] | 100.41 (122.52-82.30) mg/kg | 0.01 µg/mL (≈ 0.0127 µM) | 0.8 µg/mL (≈ 1.01 µM) |  |  |  |  |  |  | > 200 µg/mL | 0.72 µg/mL | 1.64 µg/mL | 2.50 µg/mL | 1.31 µg/mL | 0.58 µg/mL | 0.38 µg/mL | 0.08 µg/mL | absorbed by oral route in a rate practically analogous to that of erythromycin estolate | 1.28 µg/mL | 1.70 µg/mL | Hematic levels in the healthy volunteer ([3]; 2 hours, 120 min): 2.16 µg/mL; Hematic levels in the healthy volunteer ([3]; 3 hours, 180 min): 1.48 µg/mL; Hematic levels in the healthy volunteer ([3]; 4 hours, 240 min): 1.21 µg/mL
CCC(=O)O[C@H]1[C@H](O[C@@H]2[C@@H](C)[C@H](O[C@H]3C[C@@](C)(OC)[C@@H](O)[C@H](C)O3)[C@@H](C)C(=O)O[C@H](CC)[C@@](C)(O)[C@H](O)[C@@H](C)C(=O)[C@H](C)C[C@@]2(C)O)O[C@H](C)C[C@@H]1N(C)C [RV13, erythromycin-monopropionate-thiazolidin-carboxylate] | 113.88 (144.73-89.60) mg/kg | 0.025 µg/mL (≈ 0.0316 µM) | 0.8 µg/mL (≈ 1.01 µM) |  |  |  |  |  |  | > 200 µg/mL | 0.81 µg/mL | 1.80 µg/mL | 2.47 µg/mL | 1.10 µg/mL | 0.72 µg/mL | 0.52 µg/mL | 0.12 µg/mL | absorbed by oral route in a rate practically analogous to that of erythromycin estolate | 1.16 µg/mL | 1.67 µg/mL | Hematic levels in the healthy volunteer ([3]; 2 hours, 120 min): 2.21 µg/mL; Hematic levels in the healthy volunteer ([3]; 3 hours, 180 min): 1.67 µg/mL; Hematic levels in the healthy volunteer ([3]; 4 hours, 240 min): 1.29 µg/mL
CC[C@H]1OC(=O)[C@H](C)[C@@H](O[C@H]2C[C@@](C)(OC)[C@@H](O)[C@H](C)O2)[C@H](C)[C@@H](O[C@@H]2O[C@H](C)C[C@H](N(C)C)[C@H]2O)[C@](C)(O)C[C@@H](C)C(=O)[C@H](C)[C@@H](O)[C@]1(C)O [RV03, erythromycyn-thiazolidin-carboxylate] | 119.21 (142.60-99.65) mg/kg | 0.025 µg/mL (≈ 0.0341 µM) | 0.08 µg/mL (≈ 0.109 µM) | 0.58 µg/mL | 0.71 µg/mL | 0.59 µg/mL | 0.36 µg/mL | 0.07 µg/mL | poorly absorbed by oral route and in a rate like that of erythromycin base | > 200 µg/mL |  |  |  |  |  |  |  |  |  |  | ED50 (reliability limits) (D. pneumoniae SS 23; s.c.): 47.98 (59.13-38.93) mg/kg; Hematic levels in the rat [1, 9]: 1.30 µg/mL; Hematic levels in the rat [1, 10]: 0.77 µg/mL
CC[C@H]1OC(=O)[C@H](C)[C@@H](O[C@H]2C[C@@](C)(OC)[C@@H](O)[C@H](C)O2)[C@H](C)[C@@H](O[C@@H]2O[C@H](C)C[C@H](N(C)C)[C@H]2O)[C@](C)(O)C[C@@H](C)C(=O)[C@H](C)[C@@H](O)[C@]1(C)O [RV05, erythromycin-N-acetylcysteinate] | 119.31 (150.05-94.87) mg/kg | 0.01 µg/mL (≈ 0.0136 µM) | 0.4 µg/mL (≈ 0.545 µM) | 0.44 µg/mL | 0.83 µg/mL | 0.59 µg/mL | 0.40 µg/mL | 0.08 µg/mL | poorly absorbed by oral route and in a rate like that of erythromycin base | > 200 µg/mL |  |  |  |  |  |  |  |  |  |  | ED50 (reliability limits) (D. pneumoniae SS 23; s.c.): 50.22 (62.33-40.46) mg/kg; Hematic levels in the rat [1, 9]: 1.41 µg/mL; Hematic levels in the rat [1, 10]: 1.03 µg/mL
CC[C@H]1OC(=O)[C@H](C)[C@@H](O[C@H]2C[C@@](C)(OC)[C@@H](O)[C@H](C)O2)[C@H](C)[C@@H](O[C@@H]2O[C@H](C)C[C@H](N(C)C)[C@H]2O)[C@](C)(O)C[C@@H](C)C(=O)[C@H](C)[C@@H](O)[C@]1(C)O [RV04, erythromycin-S-carboxymethylcysteinate] | 119.31 (152.88-92.95) mg/kg | 0.01 µg/mL (≈ 0.0136 µM) | 0.2 µg/mL (≈ 0.273 µM) | 0.50 µg/mL | 0.71 µg/mL | 0.68 µg/mL | 0.43 µg/mL | 0.15 µg/mL | poorly absorbed by oral route and in a rate like that of erythromycin base | > 200 µg/mL |  |  |  |  |  |  |  |  |  |  | ED50 (reliability limits) (D. pneumoniae SS 23; s.c.): 60.17 (70.74-51.18) mg/kg; Hematic levels in the rat [1, 9]: 1.30 µg/mL; Hematic levels in the rat [1, 10]: 1.04 µg/mL
